# Assay results reported in publication PMC10057977, “Use of In Vivo Imaging and Physiologically-Based Kinetic Modelling to Predict Hepatic Transporter Mediated Drug–Drug Interactions in Rats” (Pharmaceutics, 2023).
# Columns and labels:
# rNtcp = system: rNtcp; parameters: method as in PMID 16258024, PMID 29891589, PMID 21415249, PMID 11883641, PMID 15550721; conditions: in vitro; cited from earlier work
# OATP1B = system: OATP1B; parameters: method as in supplement [18]; conditions: plasma AUC ratio; ref supplement [18]; cited from earlier work
# [1] = parameters: method as in supplement [33]; conditions: clinical; ref supplement [33]; cited from earlier work
# rOatp1a4 = conditions: in vitro, cited from earlier work
# [2] = Gadoxetate PBPK model transport parameters; parameters: species or system rat
# From the text: A previously developed reduced PBPK model of gadoxetate was used in the current study. The PBPK model (Figure 1) is composed of seven compartments: blood, spleen, splanchnic organs, liver interstitial space, hepatocytes, rest of the body (ROB) vascular, and extravascular space. In the ROB compartment, muscles, fat, bones, and skin, among others, are represented.
# A permeability-limited liver model was applied to describe the gadoxetate active uptake into the hepatocytes, as per Equation (1). (1) Vliv,extrdcliv,extr/dt=inputsplan+inputart−Qhcliv,extr/Kliv, extr−b−CLuptake· cliv,extr−CLpassive(cliv,extr−fu,liv, cell cliv,cell)Vliv,celldcliv,cell/dt=CLuptake cliv,extr+CLpassive(cliv,extr−fu,liv, cell cliv,cell)−CLbiliary fu,liv,cell cliv,cell […]
# cliv,extr , cliv,cell [μmol/L] and Vliv,extr , Vliv,int [L] are the gadoxetate concentrations ( c ) and volumes ( V ) of the liver extracellular space and hepatocytes, respectively. […] Details of the model development, relations between concentrations in PBPK compartments and measured ΔR1 , parameters identification, and performance were described previously. […]
# [3] = in vivo; cited from earlier work
compound,measurement,setting,value
C=C[C@@H]1C[C@]1(NC(=O)[C@@H]1C[C@@H](Oc2ncc(OC)c3ccc(Cl)cc23)CN1C(=O)[C@@H](NC(=O)OC(C)(C)C)C(C)(C)C)C(=O)NS(=O)(=O)C1CC1 [Asunaprevir],IC50,rNtcp,0.6 µM
same,AUCR of rosuvastatin (presence vs absence of inhibitor),OATP1B,< 2 fold
COc1ccccc1Oc1c(NS(=O)(=O)c2ccc(C(C)(C)C)cc2)nc(-c2ncccn2)nc1OCCO [Bosentan],IC50,rNtcp,0.4 µM
same,treated patients with mild liver dysfunction,[1],about 10%
CO[C@H]1/C=C/O[C@@]2(C)Oc3c(C)c(O)c4c(O)c(c(/C=N/N5CCN(C)CC5)c(O)c4c3C2=O)NC(=O)/C(C)=C\C=C\[C@H](C)[C@H](O)[C@@H](C)[C@@H](O)[C@@H](C)[C@H](OC(C)=O)[C@@H]1C [Rifampicin],IC50,rOatp1a4; read-out: IC50 (µM) rOatp1a4,1.3 µM
same,Ki,rOatp1a4; read-out: Ki (µM) rOatp1a4,2.9 µM
"CCOc1ccc(C[C@@H](CN(CCN(CC(=O)[O-])CC(=O)[O-])CC(=O)[O-])N(CC(=O)[O-])CC(=O)[O-])cc1.[Gd+3].[H+].[H+] [gadoxetate, Gadoxetate]","CLbiliary, new value in unified units",[2]; total concentration in hepatocytes,0.756 mL/min
same,"CLuptake, new value in unified units",[2]; total concentration in the liver interstitial fluid,36.2 mL/min
same,hepatic extraction,[3],approx. 20%
